Assay results from US20240366612A1, “COMPOUNDS AND METHODS FOR MODULATING NUCLEIC ACID SPLICING” (REMIX THERAPEUTICS INC., priority 2021, published 2024).
Structures can show the parent of a compound that is named as a salt.

What was measured:
Target C CJ mRNA = assay: Gene panel canonical junction qPCR assay, Target C; assay type: cell-based; conditions: Homo sapiens, larger gene panel, read-out: Target C IC50 (decrease in CJ mRNA levels)
Protocol: Compounds described herein were used to modulate RNA transcript abundance in cells. The expression of a target mRNA was measured by detecting the formation of an exon-exon junction in the canonical transcript (CJ). A compound mediated exon-inclusion event was detected by observing an increase in formation of a new junction with an alternative exon (AJ). Real-time qPCR assays were used to detect these splicing switches and interrogate the potency of various compounds towards different target genes. A high-throughput real time quantitative PCR (RT-qPCR) assay was developed to measure these two isoforms of the mRNA (CJ and AJ) for exemplary genes, such as HTT, SMN2, and MYB, together with a control housekeeping gene, GAPDH or GUSB or PPIA, used for normalization. Briefly, the A673 or K562 cell line was treated with various compounds described herein (e.g., compounds of Formula (I)). After treatment, the levels of the HTT, MYB, or SMN2 mRNA targets were determined from each sample of cell lysate by cDNA synthesis followed by qPCR.
The A673 cell line was cultured in DMEM with 10% FBS. Cells were diluted with full growth media and plated in a 96-well plate (15,000 cells in 100 ul media per well). The plate was incubated at 37° C. with 5% CO2 for 24 hours to allow cells to adhere. An 11-point 3-fold serial dilution of the compounds was made in DMSO then diluted in media in an intermediate plate. Compounds were transferred from the intermediate plate to the cell plate with the top dose at a final concentration of 10 uM in the well. Final DMSO concentration was kept at or below 0.25%. The cell plate was returned to the incubator at 37° C. with 5% CO2 for an additional 24 hours.
The K562 cell line was cultured in IMDM with 10% FBS. For K562, cells were diluted with full growth media and plated in either a 96-well plate (50,000 cells in 50 uL media per well) or a 384-well plate (8,000-40,000 cells in 45 uL media per well). An 11-point 3-fold serial dilution of the compounds were made in DMSO then diluted in media in an intermediate plate. Compound was transferred from the intermediate plate to the cell plate with the top dose at a final concentration of 10 uM in the well. Final DMSO concentration was kept at or below 0.25%. Final volume was 100 uL for 96-well plate and 50 uL for 384-well plate. The cell plate was then placed in an incubator at 37° C. with 5% CO2 for 24 hours.
The data analysis was performed by first determining the ΔCt vs the housekeeper gene. This ΔCt was then normalized against the DMSO control (ΔΔCt) and converted to RQ (relative quantification) using the 2^(−ΔΔCt) equation. The RQ were then converted to a percentage response by arbitrarily setting an assay window of 3.5 and 4.0 ΔCt for HTT-CJ and MYB-CJ respectively and an assay window of 9 and 3 ΔCt for HTT-AJ and MYB-AJ in 96 well format (50,000 K562 cells/well and 15,000 A673 cells per well) and an assay window of 3 and 4 ΔCt for HTT-CJ and MYB-CJ respectively and an assay window of 5 and 3 ΔCt for HTT-AJ and MYB-AJ respectively in 384 well format (8,000 K562 cells/well example). […] The percentage response was then fitted to the 4 parametric logistic equation to evaluate the concentration dependence of compound treatment. The increase in AJ mRNA is reported as AC50 (compound concentration having […] in AJ increase) while the decrease in CJ mRNA levels is reported as IC50 (compound concentration having 50% response in CJ decrease).
Additional studies were carried out for a larger panel of genes using the protocol provided above. The junction between flanking upstream and downstream exons was used to design canonical junction qPCR assays. At least one of the forward primer, reverse primer or the CY5-labeled 5′ nuclease probe (with 3′ quencher such as ZEN/Iowa Black FQ) was designed to overlap with the exon junction to capture the CJ mRNA transcript. […]

[1] = tested on: HiBiT-tagged MYB protein in K562 cells; assay: HiBiT protein abundance assay, MYB; assay type: cell-based, human; conditions: HiBiT-modified K562 cells, 24 hours, luminescence
Protocol: Compounds described herein were used to screen for effects on quantitative protein abundance using a HiBit assay system (Promega). Quantitative protein abundance was determined by measuring the protein levels of HiBit-tagged protein targets expressed in cell culture via luminescence using the Nano-Glo HiBiT Lytic Detection System, which uses a split complementation assay format to reconstitute NanoBiT enzyme to generate a luminescent signal. A protein abundance assay was developed such that endogenous protein targets could be modified with the HiBiT peptide tag and their abundance could be assessed after compound treatment. Briefly, K562 cell lines containing a HiBiT-modification were treated with various compounds described herein (e.g., compounds of Formulas (I), (II), or (III)). After treatment for 24 hours, the protein abundance of a specific target was determined by measuring luminescence.
• Promega Nano-Glo HiBiT Lytic Detection System (cat #N3030) • Corning 384-well TC-treated microplates (cat #3570) • Synthego Engineered Cells Knock-In Clones
Cells were maintained in IMDM with 10% FBS. Before the assay, cells were diluted with […] growth media (IMDM+1% FBS media) and were seeded in a 384-well plate at a density of 10000 cells/well (for each cell line listed in Table 5). Each compound was prepared as a 10-point 3-fold serial dilution in DMSO with the top dose at a final concentration of 10 μM in the well. Unmodified K562 cells were added at the previously specified density with DMSO to serve as an assay baseline and positive control (PC) and DMSO only with the respective modified cell lines was added to the negative control (NC) columns. Final DMSO concentration was kept at or below 0.25%. Treated cell plates were placed in an incubator at 37° C. with 5% CO2 for 24 hours. After 24 hours, 25 μL of Complete HiBit Lytic reagent was added to each well at room temperature (e.g. one plate requiring 10 mL Lytic Buffer, 100 μL LgBiT Protein, 200 μL Lytic Substrate), shaken for 5 minutes at 600 RPM, then left to sit for 10 minutes for signal to stabilize before reading on a Spark Cyto plate reader (Tecan) with a 500 ms measurement time.
To determine compound effects on protein abundance of each target in Table 5, the percent response for each respective cell line was calculated at each compound concentration as follows:
For the normalized response at each concentration, a four-parameter logistical regression was fit to the data and the response was interpolated at the 50% value to determine a concentration for protein abundance at 50% (IC50) the untreated control.

| SMILES | IC50 (Target C CJ mRNA) | IC50 [1] |
| --- | --- | --- |
| Cc1cn2cc(-c3nn4c(=O)cc(N(C)C5CC(C)(C)NC(C)(C)C5)nc4s3)cc(F)c2n1 [Compound 215, 2-(8-fluoro-2-methylimidazo[1,2-a]pyridin-6-yl)-7-(methyl(2,2,6,6-tetramethylpiperidin-4-yl)amino)-5H-[1,3,4]thiadiazolo[3,2-a]pyrimidin-5-one] | 1 to 10 µM | 1 to 10 µM |
| Cc1cn2cc(-c3nn4c(=O)cc(N5CCNC6(CC6)C5)nc4s3)cc(F)c2n1 [Compound 216, 2-(8-fluoro-2-methylimidazo[1,2-a]pyridin-6-yl)-7-(4,7-diazaspiro[2.5]octan-7-yl)-5H-[1,3,4]thiadiazolo[3,2-a]pyrimidin-5-one] | 1 to 10 µM | 1 to 10 µM |
| Cc1cn2cc(-c3nn4c(=O)cc(N5CCN(C)CC5)nc4s3)cc(F)c2n1 [Compound 217, 2-(8-fluoro-2-methylimidazo[1,2-a]pyridin-6-yl)-7-(4-methylpiperazin-1-yl)-5H-[1,3,4]thiadiazolo[3,2-a]pyrimidin-5-one] | 1 to 10 µM | 1 to 10 µM |
| Cc1cn2cc(-c3nn4c(=O)cc(N5CCN(C)C6(CC6)C5)nc4s3)cc(F)c2n1 [Compound 218, 2-(8-fluoro-2-methylimidazo[1,2-a]pyridin-6-yl)-7-(4-methyl-4,7-diazaspiro[2.5]octan-7-yl)-5H-[1,3,4]thiadiazolo[3,2-a]pyrimidin-5-one] | 1 to 10 µM | 1 to 10 µM |
| Cn1cc2cc(-n3cnc4nc(N5CCNCC5)sc4c3=O)ccc2n1 [Compound 225, 6-(2-methyl-2H-indazol-5-yl)-2-(piperazin-1-yl)thiazolo[4,5-d]pyrimidin-7(6H)-one] | > 10 µM | > 10 µM |
| Cc1cn2cc(-n3cnc4nc(N(C)C5CC(C)(C)NC(C)(C)C5)sc4c3=O)cc(F)c2n1 [Compound 227, 6-(8-fluoro-2-methylimidazo[1,2-a]pyridin-6-yl)-2-(methyl(2,2,6,6-tetramethylpiperidin-4-yl)amino)thiazolo[4,5-d]pyrimidin-7(6H)-one, formate] | > 10 µM | > 10 µM |
| Cc1cn2cc(-n3cnc4nc(N5CCN(C)CC5)sc4c3=O)cc(F)c2n1 [Compound 228, 6-(8-fluoro-2-methylimidazo[1,2-a]pyridin-6-yl)-2-(4-methylpiperazin-1-yl)thiazolo[4,5-d]pyrimidin-7(6H)-one] | 1 to 10 µM | 1 to 10 µM |
| Cc1cn2cc(-n3cnc4nc(N5CCNCC5)sc4c3=O)cc(C(F)(F)F)c2n1 [Compound 229, 6-(2-methyl-8-(trifluoromethyl)imidazo[1,2-a]pyridin-6-yl)-2-(piperazin-1-yl)thiazolo[4,5-d]pyrimidin-7(6H)-one] | > 10 µM | > 10 µM |
| Cc1cn2cc(-n3cnc4nc(N5CCN(C)CC5)sc4c3=O)cc(C(F)(F)F)c2n1 [Compound 230, 6-(2-methyl-8-(trifluoromethyl)imidazo[1,2-a]pyridin-6-yl)-2-(4-methylpiperazin-1-yl)thiazolo[4,5-d]pyrimidin-7(6H)-one] | > 10 µM | > 10 µM |
| Cc1cc(-c2cc3ncn(C4CCN(C)CC4)c(=O)c3s2)cc2cn(C)nc12 [Compound 237, 6-(2,7-dimethyl-2H-indazol-5-yl)-3-(1-methylpiperidin-4-yl)thieno[3,2-d]pyrimidin-4(3H)-one] | 1 to 10 µM | < 0.1 µM |

Results, then the compound that gave them:

| IC50 (Target C CJ mRNA) | IC50 [1] | SMILES |
| --- | --- | --- |
| 0.1 to 1 µM | 0.1 to 1 µM | Cc1cn2cc(-n3cnc4nc(N5CCNCC5)sc4c3=O)cc(F)c2n1 [Compound 226, 6-(8-fluoro-2-methylimidazo[1,2-a]pyridin-6-yl)-2-(piperazin-1-yl)thiazolo[4,5-d]pyrimidin-7(6H)-one] |
| 1 to 10 µM | 0.1 to 1 µM | Cc1cn2nc(-c3nc4ncn(C5CCNCC5)c(=O)c4s3)cc(C)c2n1 [Compound 231, 2-(2,8-dimethylimidazo[1,2-b]pyridazin-6-yl)-6-(piperidin-4-yl)thiazolo[4,5-d]pyrimidin-7(6H)-one] |
| 0.1 to 1 µM | 0.1 to 1 µM | Cc1cn2cc(-c3nc4ncn(C5CCNCC5)c(=O)c4s3)cc(F)c2n1 [Compound 232, 2-(8-fluoro-2-methylimidazo[1,2-a]pyridin-6-yl)-6-(piperidin-4-yl)thiazolo[4,5-d]pyrimidin-7(6H)-one] |
| 0.1 to 1 µM | < 0.1 µM | Cc1cc(-c2nc3ncn(C4CCNCC4)c(=O)c3s2)cc2cn(C)nc12 [Compound 233, 2-(2,7-dimethyl-2H-indazol-5-yl)-6-(piperidin-4-yl)thiazolo[4,5-d]pyrimidin-7(6H)-one] |
| 1 to 10 µM | < 0.1 µM | Cc1cc(-c2nc3ncn(C4CCN(C)CC4)c(=O)c3s2)cc2cn(C)nc12 [Compound 234, 2-(2,7-dimethyl-2H-indazol-5-yl)-6-(1-methylpiperidin-4-yl)thiazolo[4,5-d]pyrimidin-7(6H)-one] |
| 0.1 to 1 µM | 0.1 to 1 µM | Cc1cn2cc(-c3cc4ncn(C5CCNCC5)c(=O)c4s3)cc(F)c2n1 [Compound 235, 6-(8-fluoro-2-methylimidazo[1,2-a]pyridin-6-yl)-3-(piperidin-4-yl)thieno[3,2-d]pyrimidin-4(3H)-one] |
| 0.1 to 1 µM | < 0.1 µM | Cc1cc(-c2cc3ncn(C4CCNCC4)c(=O)c3s2)cc2cn(C)nc12 [Compound 236, 6-(2,7-dimethyl-2H-indazol-5-yl)-3-(piperidin-4-yl)thieno[3,2-d]pyrimidin-4(3H)-one] |
| 1 to 10 µM | 0.1 to 1 µM | Cc1cn2nc(-c3cc4ncn(C5CCNCC5)c(=O)c4s3)cc(C)c2n1 [Compound 238, 6-(2,8-dimethylimidazo[1,2-b]pyridazin-6-yl)-3-(piperidin-4-yl)thieno[3,2-d]pyrimidin-4(3H)-one] |
